Measurements reported in ChEMBL document CHEMBL1201862, “PubChem BioAssay data set” (2004).
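Briefly, cells in 96-well plates were exposed to five compound concentrations for 48 h, and endpoints were estimated by linear interpolation. At the GI50, growth is halved.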 Activity calls are given as the source filed them. Cut-off read from the data, not from the text of the source: active = GI50 up to about 1.1 µM and inactive = higher.

Experiments:
Assay in all cases: DTP human tumour cell line panel, 48 h
[1] = system: DMS-114
[2] = system: XF498
[3] = system: SNB-78
[4] = system: M19-MEL
[5] = system: DLD-1
[6] = system: DMS-273
[7] = system: HOP-18
[8] = system: RXF 631
[9] = system: LXFL 529

## N#C/C(=C/c1cccc2ccccc12)C(=O)c1ccccc1
[1]
  GI50: 51.6 µM (inactive)
[2]
  GI50: 20.1 µM (inactive)
[3]
  GI50: 42.9 µM (inactive)
[4]
  GI50: 28.4 µM (inactive)

## CN(C=O)/C=C/c1cc(O)ccc1O
[5]
  GI50: 20 µM (inactive)
[1]
  GI50: 45.9 µM (inactive)
[6]
  GI50: > 39.4 µM (inactive)
[7]
  GI50: 14.6 µM (inactive)
[3]
  GI50: 30.8 µM (inactive)
[4]
  GI50: 20.8 µM (inactive)
[8]
  GI50: 47.5 µM (inactive)
[9]
  GI50: 18.8 µM (inactive)

## CC(=O)c1ccc(NC(=O)C(=O)C(C(=O)/C=C/c2ccccc2)C2OC(=O)c3ccccc32)cc1 (stereo unspecified)
[5]
  GI50: > 100 µM (inactive)
[2]
  GI50: > 100 µM (inactive)
[6]
  GI50: > 100 µM (inactive)
[7]
  GI50: > 100 µM (inactive)
[3]
  GI50: > 100 µM (inactive)
[4]
  GI50: > 100 µM (inactive)
[8]
  GI50: > 100 µM (inactive)
[9]
  GI50: 96.6 µM (inactive)

## Cc1ccc(NC(=O)CCc2n[nH]c(=S)o2)cc1
[5]
  GI50: > 100 µM (inactive)
[1]
  GI50: > 100 µM (inactive)
[2]
  GI50: > 100 µM (inactive)
[6]
  GI50: > 100 µM (inactive)
[7]
  GI50: > 100 µM (inactive)
[3]
  GI50: > 100 µM (inactive)
[4]
  GI50: > 100 µM (inactive)
[8]
  GI50: > 100 µM (inactive)
[9]
  GI50: > 100 µM (inactive)

## Cn1nc(-c2ccccc2)c(C(=O)/C=C/c2ccc(Cl)cc2)c(N2CCCC2)c1=O
[5]
  GI50: 2.69 µM (inactive)
[1]
  GI50: 2.84 µM (inactive)
[2]
  GI50: 10.4 µM (inactive)
[6]
  GI50: 3.62 µM (inactive)
[7]
  GI50: 6.49 µM (inactive)
[4]
  GI50: 7.24 µM (inactive)
[8]
  GI50: 6.12 µM (inactive)
[9]
  GI50: 3.47 µM (inactive)

## O=c1cc(-c2cccnc2)[nH]c2cc3c(cc12)OCO3
[5]
  GI50: 4.03 µM (inactive)
[1]
  GI50: 7.01 µM (inactive)
[2]
  GI50: 7.36 µM (inactive)
[6]
  GI50: 4.13 µM (inactive)
[7]
  GI50: 1.17 µM (inactive)
[3]
  GI50: 27.7 µM (inactive)
[4]
  GI50: 3.59 µM (inactive)
[9]
  GI50: 2.3 µM (inactive)

## CC1=NN(C(=O)c2ccc(Cl)cc2)C(=O)/C1=C/c1c(O)cc(O)c2ccccc12
[5]
  GI50: > 100 µM (inactive)
[1]
  GI50: > 100 µM (inactive)
[2]
  GI50: > 100 µM (inactive)
[3]
  GI50: > 100 µM (inactive)
[4]
  GI50: > 100 µM (inactive)
[9]
  GI50: > 100 µM (inactive)

## O=C(c1ccccc1)N1C2C3CC(OCc4ccccc4)(OCc4ccccc4)C(O3)C21 (stereo unspecified)
[5]
  GI50: > 100 µM (inactive)
[1]
  GI50: > 100 µM (inactive)
[2]
  GI50: > 100 µM (inactive)
[3]
  GI50: > 100 µM (inactive)
[4]
  GI50: > 100 µM (inactive)
[8]
  GI50: > 100 µM (inactive)
[9]
  GI50: > 100 µM (inactive)

## O=C1c2ccccc2C(=O)N1C/C=N/NS(=O)(=O)c1cccc([N+](=O)[O-])c1
[5]
  GI50: > 100 µM (inactive)
[1]
  GI50: > 100 µM (inactive)
[2]
  GI50: > 100 µM (inactive)
[6]
  GI50: > 100 µM (inactive)
[4]
  GI50: > 100 µM (inactive)
[9]
  GI50: > 100 µM (inactive)

## COC(=O)C(CBr)CBr
[5]
  GI50: 2.04 µM (inactive)
[1]
  GI50: 2.06 µM (inactive)
[2]
  GI50: 2.3 µM (inactive)
[6]
  GI50: 12.7 µM (inactive)
[3]
  GI50: 1.79 µM (inactive)
[4]
  GI50: 3.21 µM (inactive)
[8]
  GI50: 3.05 µM (inactive)
[9]
  GI50: 1.79 µM (inactive)

## CC(C)(C)OC(=O)c1cccnc1/C=N/O
[5]
  GI50: > 100 µM (inactive)
[1]
  GI50: > 100 µM (inactive)
[2]
  GI50: > 100 µM (inactive)
[6]
  GI50: > 100 µM (inactive)
[7]
  GI50: > 100 µM (inactive)
[3]
  GI50: > 100 µM (inactive)
[4]
  GI50: > 100 µM (inactive)
[8]
  GI50: > 100 µM (inactive)
[9]
  GI50: > 100 µM (inactive)

## CCCCCCCCCCCC(=O)OC[C@@H](C[As](=O)(O)O)OC(=O)CCCCCCCCCCC
[5]
  GI50: 18 µM (inactive)
[1]
  GI50: 2.12 µM (inactive)
[2]
  GI50: 14.2 µM (inactive)
[6]
  GI50: 3.26 µM (inactive)
[7]
  GI50: 14.5 µM (inactive)
[3]
  GI50: 3.39 µM (inactive)
[4]
  GI50: 6.05 µM (inactive)
[9]
  GI50: 5.45 µM (inactive)

## C=CN1C(=O)[C@H](Oc2ccccc2)[C@@H]1c1ccccc1
[5]
  GI50: 28.5 µM (inactive)
[1]
  GI50: 27.6 µM (inactive)
[2]
  GI50: 26.1 µM (inactive)
[7]
  GI50: 37.8 µM (inactive)
[3]
  GI50: 43.5 µM (inactive)
[4]
  GI50: 43.4 µM (inactive)
[9]
  GI50: 31.4 µM (inactive)

## C=C1C(=O)OC2/C=C(/C)C3CC(O)C(C)(CC(OC(=O)/C(C)=C/C)C12)O3 (stereo unspecified)
[5]
  GI50: 1.54 µM (inactive)
[1]
  GI50: 7.01 µM (inactive)
[2]
  GI50: 3.56 µM (inactive)
[6]
  GI50: 2.54 µM (inactive)
[7]
  GI50: 17.4 µM (inactive)
[3]
  GI50: 2.61 µM (inactive)
[4]
  GI50: 2.96 µM (inactive)
[9]
  GI50: 2.08 µM (inactive)

## COC(=O)[C@H]1C=C[C@@H](C)n2c(=O)c3ccccc3c(=O)n21
[5]
  GI50: > 100 µM (inactive)
[1]
  GI50: > 100 µM (inactive)
[2]
  GI50: > 100 µM (inactive)
[6]
  GI50: > 100 µM (inactive)
[3]
  GI50: > 100 µM (inactive)
[4]
  GI50: > 100 µM (inactive)
[9]
  GI50: > 100 µM (inactive)

## [N-]=[N+]=Nc1ncnc2c1sc(=S)n2-c1ccccc1
[5]
  GI50: > 100 µM (inactive)
[1]
  GI50: > 100 µM (inactive)
[2]
  GI50: > 100 µM (inactive)
[6]
  GI50: > 100 µM (inactive)
[7]
  GI50: > 100 µM (inactive)
[3]
  GI50: > 100 µM (inactive)
[4]
  GI50: > 100 µM (inactive)
[9]
  GI50: > 100 µM (inactive)

## CCOC(=O)NC(=O)c1cn(CCCOC(=O)NCCCCCCNC(=O)OCCCn2cc(C(=O)NC(=O)OCC)c(=O)[nH]c2=O)c(=O)[nH]c1=O
[5]
  GI50: 31.3 µM (inactive)
[1]
  GI50: 15.3 µM (inactive)
[6]
  GI50: 30.7 µM (inactive)
[7]
  GI50: 82.8 µM (inactive)
[3]
  GI50: 36.7 µM (inactive)
[4]
  GI50: 31.9 µM (inactive)
[9]
  GI50: 57.4 µM (inactive)

## N#CC(C#N)=C(N)/C(C#N)=C/c1cc(O)c(O)c(Br)c1
[5]
  GI50: 55.6 µM (inactive)
[1]
  GI50: 29.1 µM (inactive)
[2]
  GI50: 35.7 µM (inactive)
[6]
  GI50: 59.2 µM (inactive)
[3]
  GI50: 75.7 µM (inactive)
[4]
  GI50: > 100 µM (inactive)
[9]
  GI50: 44.9 µM (inactive)

## CN(C)CC/C(=N\Nc1ccc(Cl)cc1Cl)c1ccccc1
[5]
  GI50: 10.3 µM (inactive)
[1]
  GI50: 13.8 µM (inactive)
[6]
  GI50: 13.8 µM (inactive)
[7]
  GI50: 8.85 µM (inactive)
[3]
  GI50: 13.5 µM (inactive)
[4]
  GI50: 17.2 µM (inactive)
[9]
  GI50: 13.2 µM (inactive)

## COC(CC1(OC)OC(=O)C=C1N)OC (stereo unspecified)
[5]
  GI50: > 100 µM (inactive)
[1]
  GI50: > 100 µM (inactive)
[6]
  GI50: > 100 µM (inactive)
[7]
  GI50: > 100 µM (inactive)
[3]
  GI50: > 100 µM (inactive)
[4]
  GI50: > 100 µM (inactive)
[9]
  GI50: > 100 µM (inactive)

## COc1cc2c(c(OC)c1OC)-c1ccc(SC)c(=O)cc1[C@@H](NC(=O)c1cccc([N+](=O)[O-])c1)CC2
[5]
  GI50: < 0.01 µM (active)
[2]
  GI50: 0.0205 µM (active)
[6]
  GI50: < 0.01 µM (active)
[3]
  GI50: 0.0243 µM (active)
[4]
  GI50: 0.0296 µM (active)
[8]
  GI50: 0.0164 µM (active)
[9]
  GI50: 0.0239 µM (active)

## CCCCCCC(O)C/C=C/CCCCCC/C(C(=O)OC)=C(/O)C(=O)OCC (stereo unspecified)
[5]
  GI50: > 100 µM (inactive)
[1]
  GI50: > 100 µM (inactive)
[2]
  GI50: > 100 µM (inactive)
[6]
  GI50: > 100 µM (inactive)
[7]
  GI50: > 100 µM (inactive)
[3]
  GI50: > 100 µM (inactive)
[4]
  GI50: > 100 µM (inactive)
[8]
  GI50: > 100 µM (inactive)
[9]
  GI50: > 100 µM (inactive)

## CC(=O)CC(=O)CCC(=O)Nc1cccc(C(F)(F)F)c1
[5]
  GI50: > 100 µM (inactive)
[1]
  GI50: > 100 µM (inactive)
[2]
  GI50: > 100 µM (inactive)
[6]
  GI50: > 100 µM (inactive)
[7]
  GI50: > 100 µM (inactive)
[3]
  GI50: > 100 µM (inactive)
[9]
  GI50: > 100 µM (inactive)

## CNC1=Nc2ccc(Cl)cc2C(OP(=O)(N2CCOCC2)N2CCOCC2)=NC1
[5]
  GI50: > 100 µM (inactive)
[1]
  GI50: > 100 µM (inactive)
[2]
  GI50: > 100 µM (inactive)
[6]
  GI50: > 100 µM (inactive)
[7]
  GI50: > 100 µM (inactive)
[3]
  GI50: > 100 µM (inactive)
[4]
  GI50: > 100 µM (inactive)
[8]
  GI50: > 100 µM (inactive)
[9]
  GI50: > 100 µM (inactive)

## COC1(C)CNCC(C)(C)NC(=O)C(C)(OC)CNCC(C)(C)NC1=O (stereo unspecified)
[5]
  GI50: > 100 µM (inactive)
[1]
  GI50: > 100 µM (inactive)
[6]
  GI50: > 100 µM (inactive)
[7]
  GI50: > 100 µM (inactive)
[3]
  GI50: > 100 µM (inactive)
[4]
  GI50: > 100 µM (inactive)
[8]
  GI50: > 100 µM (inactive)
[9]
  GI50: > 100 µM (inactive)

## CCC(=O)c1c(NOC2OC(COC(C)=O)C(OC(C)=O)C(OC(C)=O)C2OC(C)=O)nc(OC)n(C)c1=O (stereo unspecified)
[5]
  GI50: > 100 µM (inactive)
[1]
  GI50: > 100 µM (inactive)
[2]
  GI50: > 100 µM (inactive)
[6]
  GI50: > 100 µM (inactive)
[3]
  GI50: > 100 µM (inactive)
[4]
  GI50: > 100 µM (inactive)
[8]
  GI50: > 100 µM (inactive)
[9]
  GI50: > 100 µM (inactive)

## C1CN1c1nc(N2CC2)nc(N2CC2)n1
[5]
  GI50: 18.4 µM (inactive)
[1]
  GI50: 2.99 µM (inactive)
[2]
  GI50: 4.89 µM (inactive)
[6]
  GI50: 1.31 µM (inactive)
[7]
  GI50: 17.5 µM (inactive)
[4]
  GI50: 12.3 µM (inactive)
[8]
  GI50: 11.3 µM (inactive)
[9]
  GI50: 13.9 µM (inactive)

## Nc1ncnc2c1ncn2C1OC(CSCc2ccc(Cl)cc2)C(O)C1O (stereo unspecified)
[5]
  GI50: 14.6 µM (inactive)
[1]
  GI50: 21.9 µM (inactive)
[2]
  GI50: 22.8 µM (inactive)
[6]
  GI50: 30.1 µM (inactive)
[7]
  GI50: 42 µM (inactive)
[3]
  GI50: 68.9 µM (inactive)
[4]
  GI50: 33.7 µM (inactive)
[9]
  GI50: 17.2 µM (inactive)
